Data on six compounds can be found in patent EP4722219A1 (Gan & Lee Pharmaceuticals Co., Ltd., priority 2023, dated 2024).

Holding throughout (assay type): cell-based
Test [1] deals with T1, ERα (Homo sapiens, UniProt P03372).
T1 sequence (P03372 1-595): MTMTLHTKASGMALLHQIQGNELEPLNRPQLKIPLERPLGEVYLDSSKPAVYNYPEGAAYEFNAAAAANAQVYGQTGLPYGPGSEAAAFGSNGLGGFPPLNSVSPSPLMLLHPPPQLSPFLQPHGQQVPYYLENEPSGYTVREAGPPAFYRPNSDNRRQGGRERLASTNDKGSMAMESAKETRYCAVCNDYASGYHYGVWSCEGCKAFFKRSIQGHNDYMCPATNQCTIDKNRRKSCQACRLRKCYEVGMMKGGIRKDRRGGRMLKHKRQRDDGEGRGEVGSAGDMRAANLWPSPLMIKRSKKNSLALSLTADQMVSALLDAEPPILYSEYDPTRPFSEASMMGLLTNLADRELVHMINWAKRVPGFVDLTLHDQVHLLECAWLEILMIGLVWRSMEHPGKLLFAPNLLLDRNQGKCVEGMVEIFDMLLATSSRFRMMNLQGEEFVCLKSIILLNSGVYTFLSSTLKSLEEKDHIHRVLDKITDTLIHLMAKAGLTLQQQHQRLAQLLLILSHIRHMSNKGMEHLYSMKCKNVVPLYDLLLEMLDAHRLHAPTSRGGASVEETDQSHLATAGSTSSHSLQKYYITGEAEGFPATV
Put plainly: ERα degradation in T-47D cells (Western blot). As to conditions: 4 hours. The protocol:
(§1) Western blotting: The total protein concentration in the collected cell lysate supernatant was determined using the BCA protein concentration assay kit (enhanced) (P0009, Beyotime). Based on the total protein concentration determined by BCA, the protein concentration was adjusted to 1 µg/µL using RIPA lysis buffer and 5× SDS-PAGE protein loading buffer (MB01015, GenScript). The protein was denatured in a 95°C water bath for 5 minutes. After denaturation, the condensed water on the tube wall was collected by centrifugation and used as the loading sample. 20µL of the loading sample (20 µg of total protein) was added to the sample well of a 12% precast gel (M00669, GenScript). Electrophoresis was performed at 100 V for 20 minutes, followed by switching to 150 V for 40 minutes. After electrophoresis, the proteins from the SDS-PAGE gel were transferred to a PVDF membrane at a constant voltage of 100 V for 60 minutes. After transfer, the PVDF membrane corresponding to the ERα protein and internal reference protein was cut and incubated in 1× QµickBlock blocking buffer (P0252, Beyotime) for 30 minutes at room temperature on a shaker. After blocking, the ERα primary antibody (1:1000, 8644S, CST) was added and incubated overnight at 4°C on a shaker. The PVDF membrane was washed three times with 1× TBST buffer for 5 minutes each. Rabbit IgG (H+L) secondary antibody (1:7500, SA5-35571, Invitrogen) was added and incubated for 1 hour at room temperature on a shaker. The membrane was then washed again three times with 1× TBST buffer for 5 minutes each. Finally, the membrane was imaged using a dual-color infrared laser imaging system (Odyssey DLx, LICOR). Protein maps were analyzed for grayscale value using Image Studio Lite software. The grayscale correction value for each sample was calculated using the formula: grayscale correction value = grayscale value of the target protein / grayscale value of the corresponding internal reference. Then the grayscale correction values of the compound group and the control group were compared to calculate the degradation rate of the compound. Table 4 Degradation rate of ERα by PROTAC compounds of the present invention and positive control in MCF-7 cells (%)
Test Example 5 Degradation of ERα by the PROTAC compounds disclosed in the present invention in T-47D cells
T-47D (ATCC) cells were cultured in PRMI-1640 medium (30-2001, ATCC) containing 10% FBS (10099141C, Gibco) at 37°C and 5% CO2 until they entered the logarithmic growth phase. T-47D cells were seeded at a density of 3×10^5 cells/well in a 6-well plate and incubated at 37°C, 5% CO2 for 24 hours. After cell attachment, 1 µL of compound dimethyl sulfoxide solution (final concentration 0.15-1000 nM) was added and incubated for another 4 hours at 37°C, 5% CO2 incubator. After 4 hours, the culture medium was discarded, and each well was washed once with 1 mL of pre-chilled 1× DPBS. The cells were then lysed with 50 µL of RIPA lysis buffer (P0013B, Beyotime) and 1× protease inhibitor cocktail (P1005, Beyotime). After incubation on ice for 20 minutes, the cells were centrifuged at 14,000 g at 4°C for 30 minutes. The supernatant was carefully collected and analyzed for ERα protein levels by immunoblotting. Table 5 Degradation rate of ERα by PROTAC compounds of the present invention and positive control sample in T-47D cells (%)

In test [2] the target is T1, ERα. Description: ERα degradation in MCF-7 cells (Western blot). Set-up: host or cells: MCF-7. As to conditions: 4 hours. The protocol: Test Example 4 Effect of PROTAC Compounds Disclosed in the Present Invention on ERα Degradation in MCF-7 Cells
MCF-7 (ATCC) cells were cultured in DMEM medium (11995-065, Gibco) containing 10% FBS (10099141C, Gibco) at 37°C and 5% CO2 until they entered the logarithmic growth phase. MCF-7 cells were plated at a density of 3×10^5 cells/well in a 6-well plate and incubated at 37°C, 5% CO2 for 24 hours. After cell attachment, 1µL of compound in dimethyl sulfoxide (final concentration 0.15-1000nM) was added and incubated for another 4 hours at 37°C, 5% CO2 incubator. After 4 hours, the culture medium was discarded, and each well was washed once with 1 mL of pre-chilled 1× DPBS. The cells were then lysed with 50 µL of RIPA lysis buffer (P0013B, Beyotime) and 1× protease inhibitor cocktail (P1005, Beyotime). After incubation on ice for 20 minutes, the cells were centrifuged at 14,000 g at 4°C for 30 minutes. The supernatant was carefully collected and analyzed for ERα protein levels by immunoblotting.
as §1

The next test concerns MCF-7 cells. Description: Inhibition of cell proliferation in MCF-7 cells (CCK-8). As to conditions: MCF-7 cell proliferation, 6 days treatment. Here is the method: Test Example 3 Inhibitory effect of PROTAC compounds provided by the present invention on cell proliferation in MCF-7 cells
The complete culture medium required for MCF-7 cells (source ATCC) is DMEM (gibco, Product number: 11995-065) basal culture medium containing 10% fetal bovine serum. MCF-7 cells were seeded in 96-well plates at a density of 800 cells/well, and different concentrations of PROTAC compounds 1-55 provided in the examples of the present invention and positive control sample ARV-471 (source: Inokai) were prepared to treat the cells and incubated at 37 °C, 5% CO2 cell culture incubator for 6 days. According to the manufacturer's instructions, cell viability was detected using a CCK-8 kit (Beyotime, Product number: C0040). The IC50 of each PROTAC compound after treating for 6 days was calculated using GraphPadPrism software based on the inhibition rate. Table 3 Inhibition IC50 value of MCF-7 cell proliferation by PROTAC compounds of the present invention and positive control sample

Another test concerns T-47D cells. Put plainly: Inhibition of cell proliferation in T-47D cells (CCK-8). As to conditions: 6 days treatment, CCK-8 cell viability. The protocol:
Test Example 2 Inhibitory effect of PROTAC compounds provided by the present invention on cell proliferation in T-47D cells
The complete culture medium required for T-47D cells is 1640 (ATCC, Product number: A10491-01) basal culture medium containing 10% fetal bovine serum. T-47D cells were seeded in 96-well plates at a density of 3,000 cells/well, and different concentrations of PROTAC compounds 1-55 provided in the examples of the present invention and positive control sample ARV-471 (source: Inokai) were prepared to treat the cells and incubated at 37 °C, 5% CO2 cell culture incubator for 6 days. According to the manufacturer's instructions, cell viability was detected using a CCK-8 kit (Beyotime, Product number: C0040). The IC50 of each compound after treating for 6 days was calculated using GraphPadPrism software based on the inhibition rate. Table 2 Inhibition IC50 value of T-47D cell proliferation by PROTAC compounds provided by the present invention and positive control sample

Turning to `O=C1CC[C@H](NC(=O)c2cc3c(cc2F)N2CCN(C[C@H]4CC[C@@H](OC5CCN(c6ccc([C@@H]7c8ccc(O)cc8CC[C@@H]7c7ccccc7)cc6)CC5)CC4)C[C@@H]2CO3)C(=O)N1` [ER-P-67, (R)-N-((S)-2,6-dioxopiperidin-3-yl)-9-fluoro-3-(((1S,4S)-4-((1-(4-((1R,2S)-6-hydroxy-2-phenyl-1,2,3,4-tetrahydronaphthalen-1-yl)phenyl)piperidin-4-yl)oxy)cyclohexyl)methyl)-1,2,3,4,4a,5-hexahydrobenzo[b]pyrazi no[1,2-d][1,4]oxazine-8-carboxamide], the “Degradation rate of ERα in T-47D cells (%)” value is reported as 6% at ERα [1] (1nM) and 20% at ERα [1] (10nM). The “Degradation rate of ERα in MCF-7 cells (%)” value on ERα [2] (1nM) was 28%; on ERα [2] (10nM), 13%. The IC50 came out at 2990 nM in the test with MCF-7 cells (Homo sapiens, MCF7, 144 h) and 92.5 nM in the test with T-47D cells (Homo sapiens, T47D, 144 h).
On to `Cn1c(=O)n(C2CCC(=O)NC2=O)c2cc3c(cc21)C1(CCN(C[C@H]2CC[C@@H](OC4CCN(c5ccc([C@@H]6c7ccc(O)cc7CC[C@@H]6c6ccccc6)cc5)CC4)CC2)CC1)CO3` (stereo partly drawn) [ER-P-55, 3-(1'-(((1S,4S)-4-((1-(4-((1R,2S)-6-hydroxy-2-phenyl-1,2,3,4-tetrahydronaphthalen-1-yl)phenyl)piperidin-4-yl)oxy)cyclohexyl)methyl)-1-methyl-2-oxo-1,2-dihydro-3H,6H-spiro[benzofuro[5,6-d]imidazole-7,4'-piperidin]-3-yl)piperidine-2,6-dione], for which the “Degradation rate of ERα in T-47D cells (%)” value turned out to be 62% at ERα [1] (1nM) and 87% on ERα [1] (10nM). The “Degradation rate of ERα in MCF-7 cells (%)” value on ERα [2] (1nM) amounted to 35%; at ERα [2] (10nM) it was 69%. Moreover, the IC50 in the test with MCF-7 cells (Homo sapiens, MCF7, 144 h) worked out at 113 nM; in the test on T-47D cells (Homo sapiens, T47D, 144 h), 0.18 nM.
On to `Cn1c(=O)n(C2CCC(=O)NC2=O)c2ccc3c(c21)OCC31CCN(CC2CCN(c3ccc([C@@H]4c5ccc(O)cc5CC[C@@H]4c4ccccc4)cc3)CC2)CC1` (stereo partly drawn) [ER-P-73, 3-(1'-((1-(4-((1R,2S)-6-hydroxy-2-phenyl-1,2,3,4-tetrahydronaphthalen-1-yl)phenyl)piperidin-4-yl)methyl)-1-methyl-2-oxo-1,2-dihydro-3H,7H-spiro[benzofuro[6,7-d]imidazole-6,4'-piperidin]-3-yl)piperidine-2,6-dione], for which the IC50 stood at 3270 nM in the test with MCF-7 cells (Homo sapiens, MCF7, 144 h) and 49.4 nM with T-47D cells (Homo sapiens, T47D, 144 h).
Regarding `O=C1CCC(N2Cc3c(ccc4c3OCC43CCC4(CC3)CN(CC3CCC(OC5CCN(c6ccc([C@@H]7c8ccc(O)cc8CC[C@@H]7c7ccccc7)cc6)CC5)CC3)C4)C2=O)C(=O)N1` (stereo partly drawn) [ER-P-78, 3-(1-(((1S,4S)-4-((1-(4-((1R,2S)-6-hydroxy-2-phenyl-1,2,3,4-tetrahydronaphthalen-1-yl)phenyl)piperidin-4-yl)oxy)cyclohexyl)methyl)-6"-oxo-6'',8''-dihydro-2"H,7"H-dipyrine[azetidine-3,1'-cyclohexane-4',3"-furo[2,3-e]isoindol]-7"-yl)piperidine-2,6-dione], the IC50 amounted to 737 nM in the test with MCF-7 cells and 5.8 nM in the test with T-47D cells.
In the same order, the values of `Cn1c(=O)n(C2CCC(=O)NC2=O)c2cc3c(cc21)OC1(CC3)CCN(CC2CC(OC3CCN(c4ccc([C@@H]5c6ccc(O)cc6CC[C@@H]5c5ccccc5)cc4)CC3)C2)CC1` (stereo partly drawn) [ER-P-81, 3-(1'-(((1S,3s)-3-((1-(4-((1R,2S)-6-hydroxy-2-phenyl-1,2,3,4-tetrahydronaphthalen-1-yl)phenyl)piperidin-4-yl)oxy)cyclobutyl)methyl)-3-methyl-2-oxo-2,3,7,8-tetrahydro-1H-spiro[chromeno[6,7-d]imidazole-6,4'-piperidin]-1-yl)piperidine-2,6-dione] are 1.6 nM and 2.57 nM.
For `O=C1CCC(NC(=O)c2cc3c(cc2F)OC2(CC3)CCN(CC3CCC(OC4CCN(c5ccc(C6c7ccc(O)cc7CCC6c6ccccc6)cc5)CC4)CC3)CC2)C(=O)N1` [ER-P-89, N-((S)-2,6-dioxopiperidin-3-yl)-7-fluoro-1'-(((1S,4s)-4-((1-(4-((1R,2S)-6-hydroxy-2-phenyl-1,2,3,4-tetrahydronaphthalen-1-yl)phenyl)piperidin-4-yl)oxy)cyclohexyl)methyl)spiro[chromane-2,4'-piperidine]-6-carboxamide], the IC50 in the test with MCF-7 cells (Homo sapiens, MCF7, 144 h) is 2740 nM; in the test with T-47D cells (Homo sapiens, T47D, 144 h), 104 nM.

The term IC50 denotes the concentration that gives 50% inhibition. Read a low IC50 as greater potency in that assay.
